The results in this text go back to publication PMC11481871, “Discovery of GuaB inhibitors with efficacy against Acinetobacter baumannii infection” (mBio, 2024).

The test system of series [1] is Acinetobacter baumannii. The series can be described thus: MIC, CLSI microdilution. The series is classed as cell-based. The conditions noted are these: 20 h, M9 + casamino acids + glucose.
In series [2] the test system is A. baumannii 19606. The series is described as follows: Neutropenic thigh infection model with i.v. GuaBi. The conditions noted are these: for bacterial load in thigh muscle: neutropenic CD-1 mice, A. baumannii 19606, i.v. infusion with PK boosters, 24 h, high dose groups; for free drug over serum-free MIC at which bactericidal: neutropenic thigh model, A. baumannii.

The target in series [3] is H. sapiens IMPDH2 (Homo sapiens, UniProt P12268). The series can be described thus: IMPDH2 biochemical IC50.
Series [4] can be described thus: In vitro metabolism in mouse hepatocytes. The series is classed as in vitro ADME. As for the experimental part: The incubation of G2 and G1 with cryopreserved mouse hepatocytes was conducted according to the standard in-house protocol. Cryopreserved hepatocytes were thawed using pre-warmed InVitroGRO HT thawing medium in 50 mL centrifuge tubes. The tubes were centrifuged for 3 min at 50 × g, and the supernatants were discarded. Cells were resuspended with 50 mL of pre-warmed Dulbecco’s modified eagle medium (DMEM) by gently inverting the tube several times. The tubes were centrifuged for 3 min at 50 × g, and the supernatants were discarded. Cells were brought up in 5.0 mL of pre-warmed DMEM incubation medium. The total cell counts and the number of viable cells were determined by the trypan blue exclusion method. Incubations were carried out in 20 mL scintillation vials containing 1.0 mL of hepatocyte suspension (approximately 1.3 × 10^6 cells/mL). The mouse hepatocytes were pre-incubated with or without 1 mM ABT or 4-MP for 15 min. Vials were spiked with G2 or G1 as a DMSO stock solution to a final concentration of 5 µM G2 or G1 and a final DMSO concentration of 0.1%. The scintillation vials were placed on an orbital shaker rotating at 16 rpm in a humidified incubator at 37°C, 5% CO2. The reaction was quenched with 4 mL of acetonitrile at 0 or 3 h. The hepatocyte samples were protein precipitated with 4 volumes of acetonitrile and centrifuged at 2,000 × g for 5 min. The resulting supernatant was reduced to a dry residue and reconstituted with 350 µL water:acetonitrile (2/1; vol/vol). All samples were analyzed by LC-MS/MS system.
Liquid chromatography (LC) equipment consisted of a CBM 20A Communications Module, NexeraX2 LC 30AD pumps, NexeraX2 SIL 30AC autosampler, CTO Prominence Column Oven from Shimadzu (Columbia, MD), and a 1290 Infinity DAD ultraviolet (UV) detector with a 60 mm flow cell from Agilent Technologies (Waldbronn, Germany). The LC column was an EVO C18 (1.9 µm, 2.1 × 100 mm) from Phenomenex. Mobile phase A was water with 0.1% formic acid and mobile phase B was acetonitrile with 0.1% formic acid. The flow rate was 400 µL/min and the injection volume was 10 µL. Column temperature was 40°C. Mass spectrometry was performed using a 5600 QTRAP mass spectrometer equipped with a TurboIonSpray from Applied Biosystems (Redwood City, CA). Various tandem mass spectrometry (MS/MS) functionalities were used for analysis, which included data-dependent time-of-flight (TOF) scans in a positive ion electrospray mode. The extracted ion chromatography traces were obtained following analysis of mouse hepatocyte incubations and were used to quantify the metabolites.

For series [5], the system named is A. baumannii ΔlpxA (LPS-null). The series is described as follows: MIC on LPS-null A. baumannii. In kind it is cell-based. As to conditions: Acinetobacter baumannii, read-out: Avg. MIC.
In series [6] the test system is Staphylococcus epidermidis. The series is described as follows: MIC, CLSI microdilution. In kind it is cell-based. As to conditions: Staphylococcus epidermidis RP62A (ATCC35984); RPMI1640.
Series [7] has as its system Enterococcus faecalis. The series is described as follows: MIC, CLSI microdilution. The conditions noted are these: Enterococcus faecalis (ATCC47077); RPMI1640. The series is classed as cell-based.
Series [8] concerns A. baumannii ΔadeJ (efflux-defective). The series is described as follows: microbe, parasite or virus in culture. The series is classed as cell-based. As to conditions: Acinetobacter baumannii, read-out: Avg. MIC.
Series [9] deals with A. baumannii 19606. The series is described as follows: Fluctuation assay, frequency of spontaneous resistance. In kind it is cell-based, Acinetobacter baumannii. As to conditions: for frequency of on-target resistance mutations: A. baumannii, 4× or 8× MIC, p0 method; for F.O.R.: P0 method.
Series [10] has as its system Serratia marcescens. The series is described as follows: MIC, CLSI microdilution. As to conditions: 20 h; Serratia marcescens (ATCC29021); M9 + casamino acids + glucose. In kind it is cell-based.
For series [11], the system named is Mycobacterium avium. The series can be described thus: MIC, CLSI microdilution. As to conditions: 336 h; Mycobacterium avium (ATCC25291); 7H9 + OADC, 14 days. In kind it is cell-based.
Series [12] has as its system carbapenem-resistant A. baumannii clinical isolates. The series can be described thus: microbe, parasite or virus in culture. The series is classed as cell-based. The conditions noted are these: Acinetobacter baumannii.
Series [13] relates to Escherichia coli. The series is described as follows: MIC, CLSI microdilution. The series is classed as cell-based. The conditions noted are these: 20 h; Escherichia coli UPEC CFT073; M9 + casamino acids + glucose.
The test system of series [14] is Enterobacter cloacae. The series can be described thus: MIC, CLSI microdilution. The series is classed as cell-based. As to conditions: 20 h; Enterobacter cloacae (ATCC222); M9 + casamino acids + glucose.

SMILES strings stand for the structures. ≈ marks a conversion by molar mass, not a printed value.

`C[C@H](Nc1ccc2ncc3c(c2c1)CCOC3)C(=O)Nc1ccc(Cl)nc1` [G1, (2S)-N-(6-chloro-3-pyridyl)-2-(2,4-dihydro-1H-pyrano[3,4-c]quinolin-9 ylamino)propanamide]: the MIC in [1] is 0.5 µM; in series [5], 0.025 µM (≈ 0.00957 µg/mL); in [6], 0.03 µM (≈ 0.0115 µg/mL); in [7], 0.2 µM (≈ 0.0766 µg/mL); in series [8] it was 0.016 µM (≈ 0.00613 µg/mL); in series [10] it was > 100 µM. The MIC in series [11] is 0.8 µM; in [13] it was > 100 µM; in [14] it was > 100 µM. Moreover, the “bacterial load in thigh muscle” value in series [2] is listed as “reduced the bacterial load in thigh muscle compared to pre-treatment”. In [2], the “free drug over serum-free MIC at which bactericidal” value is listed as “above 2 × Fu/MIC”. Also, the IC50 in [3] is > 50 µM. Also, the “clearance in mouse hepatocytes” value in series [4] is “high clearance”. The “metabolism inhibited by ABT” value in series [4] (1 mM ABT) was found to be 39%. Also, in [9], the “frequency of on-target resistance mutations” value is 6.4 × 10^−11 to 2.9 × 10^−10. Besides, the MIC50 in series [12] is 3.1 µM (≈ 1.19 µg/mL). The compound further had an MIC90 in [12] of 8 µM (≈ 3.06 µg/mL).
For the compound `C[C@@H](Oc1ccc2ncc3c(c2c1)CCOC3)c1cncc(-c2nc(Cl)c[nH]2)c1` [G8, (R)-9-[1-[5-(4-chloro-1H-imidazol-2-yl)-3-pyridyl]ethoxy]-2,4-dihydro-1H-pyrano[3,4 c]quinoline], the MIC is 1.3 µM in [1]; 0.007 µM (≈ 0.00285 µg/mL) in [5]; 0.004 µM (≈ 0.00163 µg/mL) in series [6]; 0.01 µM (≈ 0.00407 µg/mL) in series [7]; 0.01 µM (≈ 0.00407 µg/mL) in [8]; > 100 µM in series [10]. Also, the MIC in [11] is 0.04 µM; in [13], > 100 µM; in [14] it was > 100 µM. Besides, the IC50 in series [3] is > 50 µM.
Turning to `C[C@H](Nc1ccc2ncc(CO)cc2c1)C(=O)Nc1ccc(Cl)c(N(C)C)c1` [G2, (2S)-N-[4-chloro-3-(dimethylamino)phenyl]-2-[[3-(hydroxymethyl)-6-quinolyl]amino]propanamide], the MIC in series [1] is 3.1 µM; in [5], 0.07 µM (≈ 0.0279 µg/mL); in series [6], 0.4 µM (≈ 0.16 µg/mL); in series [7] it was 0.3 µM (≈ 0.12 µg/mL); in series [8], 0.04 µM (≈ 0.016 µg/mL); in series [10], > 100 µM. Besides, the MIC in series [11] was 12.5 µM; in series [13], > 100 µM; in [14], > 100 µM. Also, the “bacterial load in thigh muscle” value in series [2] is recorded as “reduced the bacterial load in thigh muscle compared to pre-treatment”. The “free drug over serum-free MIC at which bactericidal” value in [2] is reported as 5 × Fu/MIC. In series [3], the IC50 was > 50 µM. For the same compound, the “clearance in mouse hepatocytes” value in [4] is recorded as “high clearance”. In addition, the “metabolism inhibited by ABT and 4-MP” value in series [4] (1-aminobenzotriazole (ABT) and 4-methylpyrazole (4-MP)) came to 38%. Also, the “frequency of on-target resistance mutations” value in series [9] is reported as 3.6 × 10^−10 to 5.1 × 10^−10. In addition, the results for the F.O.R. in series [9] (selection 4xMIC (G1 3.1µM; G2 6.4µM)) and in series [9] (selection 8xMIC (12.8µM)) were 3.60E-10 and 5.10E-10, respectively. In series [12], the MIC50 is 6.25 µM (≈ 2.49 µg/mL). The MIC90 in series [12] amounted to 16 µM (≈ 6.38 µg/mL).
